{"source": "patent US20080226718A1", "about": "“Indole and Azaindole Derivatives For the Treatment of Inflammatory and Autoimmune Diseases” (Brane Discovery S.r.l, priority 2005, published 2008)", "key": {"[1]": {"tested_on": "experimental autoimmune encephalomyelitis (EAE)", "experiment": "EAE, preventive model", "type": "in vivo", "protocol": "(§1) Female SJL/J mice, 6-8 weeks of age, were obtained from Harlan-Nossan Italy. Mice were immunized s.c. with 200 μg PLP139-151 in 0.1 ml emulsion consisting of equal volumes of PBS and CFA (Difco Laboratories, Detroit, Mich.) and containing 6 mg/ml of Mycobacterium tuberculosis H37Ra (Difco). To induce a severe disease, in some experiments 400 ng Pertussis toxin (PTX) was administered i.v. at days 0 and 2 (Constantin, G. et al. Eur. J. Immunol., 28, 3523-3529, 1998). Mice were scored for EAE according to the following scale: 0, no disease; 1, tail weakness; 2, paraparesis; 3, paraplegia; 4, paraplegia with forelimb weakness or paralysis; 5, moribund or dead animals (Brocke S. et al., Autoimmune disease models. Academic Press, San Diego, 1-4, 1994).\nTest compound was administered daily at 60 mg/kg i.p. for 17 days starting from the day of immunization. Control animals received vehicle (DMSO).\n(§2) The effects of compound of Example 1 (PCT/EP2005/051908) were determined on EAE (experimental autoimmune encephalomyelitis), the animal model of multiple sclerosis (Tables 4 and 5). SJL mice were immunized with PLP139-151 peptide from cerebral proteolipid. The disease model has relapses and remission periods, as described in relapsing-remitting MS, the most frequent form of human disease accounting for 85% of all MS patients.\nIn the preventive model (Table 4), mice received 60 mg/kg daily of Compound of Example 1 (PCT/EP2005/051908), intraperitoneally, for 17 days starting from the day of immunization. Control animals received vehicle (DMSO). Control animals developed disease with a mean day of onset of 13±1.5. Mean maximum clinical score in control animals was 2.7±0.3. All control mice that developed disease also presented clinical relapses."}, "[2]": {"tested_on": "experimental autoimmune encephalomyelitis (EAE)", "type": "in vivo", "settings": "therapeutic", "protocol": "as §1, §2\nIn the therapeutic model (Table 5), mice received 70 mg/kg of Compound of Example 1 (PCT/EP2005/051908), daily, intraperitoneally, for 11 days starting from the day of clinical onset. The treated mice also received 4 doses intravenously (i.v.) of 10 mg/kg each. Control animals received vehicle (DMSO). Control animals developed disease with a mean day of onset of 13.8±3, while treated mice developed EAE at 13.5±2 days postimmunization. Mean (±S.E.M.) maximum clinical score in control animals was 1.75±0.6."}, "NADPH-oxidase": {"tested_on": "NADPH-oxidase", "experiment": "Respiratory burst (H2O2 assay), NADPH-oxidase activation in monocytes", "type": "cell-based", "settings": "PMA 200 ng/ml; 10, 50, 100 μM; FIG. 1b", "protocol": "NADPH-oxidase activation was measured as induction of H2O2 release (derived from dismutation of O2^−) triggered in PMNs and monocytes by PMA (200 ng/ml). Briefly, PMNs and monocytes were pretreated at 37° C. for 30-60 min with test compound at different concentrations, and stimulated with phorbol 12-myristate 13-acetate (PMA, 200 ng/ml) dissolved in 0.5 ml of a standard reaction mixture. Release of H2O2 was evaluated in real time at time points of 5 min by using a microplate fluorescence reader (Perkin-Elmer). Results are expressed as nmoles of H2O2 released over time by 10^6 cells. Shown are dose-response curves of inhibitory effect on H2O2 release over 60 min."}, "[3]": {"tested_on": "encephalitogenic lymphocytes", "experiment": "Chemokine-induced adhesion of murine encephalitogenic T cells to ICAM-1", "type": "cell-based, SJL mice", "settings": "for Chemokine-induced Adhesion in encephalitogenic lymphocytes, Mean counts ± S.D., in presence of MIP3-β stimulation: 1 μM CCL19 (MIP-3beta); for Chemokine-induced Adhesion in encephalitogenic lymphocytes, Mean counts ± S.D., in presence of MIP3-β stimulation / Adhesion in encephalitogenic lymphocytes, Mean counts ± S.D., in absence of MIP3-β stimulation: ICAM-1", "in_short": "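Murine PLP139-151-reactive T cells from immunized SJL mice were pretreated with compound (5-50 μM, 37° C., 30-60 min or 1 h), then stimulated with 1 μM CCL19 (2-3 min, static) on ICAM-1-coated glass. Bound cells counted after washing and fixation; values are mean counts ±S.D of three experiments.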"}, "[4]": {"settings": "preventive, 60 mg/kg i.p. daily for 17 days from immunization"}}, "note": "Values joined by “and” are separate entries in the source; they are usually repeats but may differ in a detail not shown here. Equal entries are not always repeated. Where two headings read alike, the source gives them in different places."}
{"smiles": "COC(=O)c1[nH]c2cc(OC)c(OC)cc2c1-c1ccc(OC)cc1", "note": "[Example 1]", "values": [{"measurement": "Visible toxicity (appearance of animals, macroscopic pathological analysis)", "setting": "[1]; 60 mg/kg i.p. daily for 17 days", "value": "neither the treatment caused any visible toxicity"}, {"measurement": "Development of clinical signs of disease, in words", "setting": "[1]; preventive, 60 mg/kg i.p. daily for 17 days", "value": "completely blocked"}, {"measurement": "Disease incidence", "setting": "[1]; [4]", "value": "0/6"}, {"measurement": "Mortality", "setting": "[1]; [4]", "value": "0/6"}, {"measurement": "Mean maximum clinical score", "setting": "[1]; preventive, 60 mg/kg i.p. daily for 17 days from immunization, scale 0-5", "value": 0}, {"measurement": "Clinical relapses", "setting": "[1]; preventive, observation period of 61 days", "value": "no treated animals developed clinical relapses"}, {"measurement": "Mortality", "setting": "[2]; 70 mg/kg i.p. daily for 11 days from clinical onset plus 4 i.v. doses of 10 mg/kg", "value": "0/6"}, {"measurement": "Mean maximum clinical score", "setting": "[2]; 70 mg/kg i.p. daily for 11 days from clinical onset plus 4 i.v. doses of 10 mg/kg, scale 0-5, ±S.E.M.", "value": "0.89 ± 0.23"}, {"measurement": "Inhibition of mean maximum clinical score", "setting": "[2]; P<0.01", "value": 50, "unit": "%"}, {"measurement": "Mean day of onset", "setting": "[2]; treatment started at clinical onset", "value": "13.5±2 days postimmunization and 13.5 ± 2.0 days postimmunization"}, {"measurement": "NADPH-oxidase activation (H2O2 release) in monocytes, in words", "setting": "NADPH-oxidase", "value": "inhibits NADPH-oxidase activation"}, {"measurement": "Block of chemokine-induced autoreactive lymphocyte adhesion, in words", "setting": "[3]; 5-50 μM for 1 h, 1 μM CCL19", "value": "almost complete block"}, {"measurement": "Chemokine-induced Adhesion in encephalitogenic lymphocytes, Mean counts ± S.D., in presence of MIP3-β stimulation", "setting": "[3]; [cpd] 5 μM", "value": "10.3 ± 1.0"}, {"measurement": "Adhesion in encephalitogenic lymphocytes, Mean counts ± S.D., in absence of MIP3-β stimulation", "setting": "[3]; [cpd] 5 μM", "value": "1.3 ± 1.0"}, {"measurement": "Chemokine-induced Adhesion in encephalitogenic lymphocytes, Mean counts ± S.D., in presence of MIP3-β stimulation", "setting": "[3]; [cpd] 10 μM", "value": "7.0 ± 1.0"}, {"measurement": "Adhesion in encephalitogenic lymphocytes, Mean counts ± S.D., in absence of MIP3-β stimulation", "setting": "[3]; [cpd] 10 μM", "value": "1.0 ± 1.0"}, {"measurement": "Chemokine-induced Adhesion in encephalitogenic lymphocytes, Mean counts ± S.D., in presence of MIP3-β stimulation", "setting": "[3]; [cpd] 25 μM", "value": "5.3 ± 2.0"}, {"measurement": "Adhesion in encephalitogenic lymphocytes, Mean counts ± S.D., in absence of MIP3-β stimulation", "setting": "[3]; [cpd] 25 μM", "value": "0.4 ± 0.2"}, {"measurement": "Chemokine-induced Adhesion in encephalitogenic lymphocytes, Mean counts ± S.D., in presence of MIP3-β stimulation", "setting": "[3]; [cpd] 50 μM", "value": "3.2 ± 1.0"}, {"measurement": "Adhesion in encephalitogenic lymphocytes, Mean counts ± S.D., in absence of MIP3-β stimulation", "setting": "[3]; [cpd] 50 μM", "value": "0.4 ± 0.1"}]}
